By IC50 is commonly meant the concentration at which inhibition is half-maximal. One may read the melting point as the temperature, or range, at which the solid turns liquid. The AUC(0-t) is the area under the concentration-time curve up to a stated or last time point. Read a high AUC(0-t) as high exposure. One may read the Cmax as the maximum level reached in the sampled fluid or tissue. Usually Tmax stands for the time at which the peak concentration occurs. In general, half-life refers to how long it takes for the measured level to halve. A lower half-life goes with rapid decline.

Consider four compounds from patent US9139574B2, “Tumor targeted drug combretastatin A4 derivative” (Nanjing Sanhome Pharmaceutical Co., Ltd., priority 2011, dated 2015).

Data set [1] concerns K562. In words: MTT assay of anti-tumor activity, K562. The data set is classed as cell-based. To be noted: Homo sapiens, K562, 72 h, K562 cells. The procedure: (§1) The cells were digested and counted. The cell suspension was prepared in a concentration of 5×10^4 cells/ml. 100 μL of the cell suspension per well was added into 96-well plates (5×10^3 cells per well). The 96-well plates were placed in a 5% CO2 incubator at 37° C. for 24 hours. The drugs were diluted with the complete medium to the desired concentrations. 100 μL of the corresponding drug-containing medium was added into each well. Negative control group, vehicle control group and positive control group were set. The 96-well plates were placed in 5% CO2 incubator at 37° C. for 72 hours. The 96-well plates were subjected to a MTT assay, and measured OD value at λ=490 nm. The measurement procedure comprises adding 20 μL MTT (5 mg/ml) for each well, incubating for 4 hours in an incubator, discarding the medium, dissolving by adding 150 μL DMSO into each well, mixing uniformly by rocking gently for 10 minutes on a shaker, reading OD value of each well in a microplate reader at λ=490 nm. The inhibition rate was calculated, the results were recorded, and the anti-tumor activity was assessed.
(Formazan colour is commonly taken as a measure of viable cells.)

Data set [2] concerns MCF-7. Kind of data set: MTT assay of anti-tumor activity, MCF-7. The data set is classed as cell-based. To be noted: Homo sapiens, MCF7, 72 h, MCF-7 cells. The procedure: as §1
Data set [3] has as its system HCT-116. Kind of data set: MTT assay of anti-tumor activity, HCT-116. The conditions noted are these: Homo sapiens, HCT-116, 72 h, HCT-116 cells. The data set is classed as cell-based. On the procedure: as §1
Data set [4] deals with NCI-H460. In words: MTT assay of anti-tumor activity, NCI-H460. The conditions noted are these: Homo sapiens, NCI-H460, 72 h, NCI-H460 cells. It is filed as cell-based. The procedure: as §1
The subject of data set [5] is DU-145. In words: MTT assay of anti-tumor activity, DU-145. To be noted: Homo sapiens, DU-145, 72 h, DU-145 cells. It is filed as cell-based. On the procedure: as §1
In data set [6] the test system is tubulin. In words: Inhibitory activity on tubulin polymerization (kit BK011P, Cytoskeleton). The data set is classed as biochemical. The conditions noted are these: 37° C., 60 minutes, fluorescence, Vmax. On the procedure:
The compounds were formulated into six different concentrations (0.03, 0.3, 0.9, 3, 9, 30 μM). The tubulin polymerization assay kit (Cat. # BK011P, Cytoskeleton) was used for testing. The samples were incubated at 37° C. for 60 minutes, and then fluorescence was collected using Gemini EM Fluorescence Microplate Reader collected at 410-460 nm. Vmax was calculated using SOFTMAX® PRO microplate data acquisition & analysis software. The tubulin inhibition (IC50) of the compound was calculated using GRAPHPAD PRISM® v5.01 graphing and statistics software.

A short description of data set [7]: Pharmacokinetics of Compound C128 liposome in rats. The data set is classed as in vivo. To be noted: C128 liposomes, 10 mg/kg tail vein injection, plasma, non-compartmental; for Vd: male, SD, 10 mg/kg. On the procedure:
C128 liposomes: (The liposome was prepared according to the conventional method in the pharmaceutical field, particle size 62.6 nm, polydispersity 0.532).
SD male rats, with average weight of 200 g.
Chromatographic conditions: LC-20A high performance liquid chromatography, SPD-20A variable wavelength UV detector (Shimadzu Corporation, Japan); C18 pre-column; mobile phase: methanol/water (65/35, v/v); flow rate 1 mL/min; detection wavelength 283 nm; column temperature 40° C.
The blood was collected from the orbital sinus of rats and centrifuged for 10 minutes at 3000 r/min, and the plasma was separated. 200 μL of the plasma was accurately sampled, and placed in 1.5 mL EP tube. 600 μL acetonitrile was added. The tube was vortexed for 3 minutes, and centrifuged for 10 minutes at 16000 r/min. 20 μL supernatant was taken for injection of HPLC determination. Chromatograms and peak area were recorded.
Blank plasma (280 μL) was accurately pipetted, and 20 μL of standard solutions of different concentrations of the drug was added to obtain the biological samples of different concentrations of the drug. The samples were treated and measured according to the aforementioned “Processing of the biological samples”. The chromatogram and the peak area were recorded. Linear regression was made by peak area A v.s concentration C (μg/mL) to obtain the standard working curve of Compound C128 in the biological samples.
Three male rats were used, and administered via tail vein injection at a dose of 10 mg/kg. The blood was taken via the orbital sinus after administration of 5 min, 15 min, 30 min, 1 h, 2 h, 4 h, 6 h, 8 h, 10 h, respectively. The samples were treated and measured according to the aforementioned “Processing of the biological samples”. The chromatogram and the peak area were recorded. The measured amount, namely, the drug concentration in plasma, was calculated by putting the peak area of the drug into the standard working curve equation.
The time curve of the drug in plasma was drawn—the area under the plasma drug concentration-time curve (AUC) was calculated by the Log trapezoidal method.

SMILES strings stand for the structures. Where two headings read alike, the source gives them in different places.

`COc1cc(OC)cc(-c2ncoc2-c2ccc(OC)c(O)c2)c1` [Compound C110, 4-(3,5-dimethoxyphenyl)-5-(3-hydroxy-4-methoxyphenyl)oxazole]: the melting point fell in the range of 149.9 to 151.6 °C. For the same compound, inhibition in data set [1] was half-maximal at 49 nM (IC50). Besides, half-maximal inhibition in data set [2] (IC50) was put at 210 nM. The compound also showed an IC50 in data set [3] of 71 nM. This compound also returned an IC50 in data set [4] of 33 nM. Further, the IC50 in data set [5] stood at 2.5 nM. For the same compound, half-maximal inhibition in data set [6] (IC50) was put at 470 nM.

Take `COc1cc(OC)cc(-c2ncoc2-c2ccc(OC)c(O)c2N)c1` [Compound C124, 4-(3,5-dimethoxyphenyl)-5-(2-amino-3-hydroxy-4-methoxyphenyl)oxazole]: the IC50 is 6.4 nM in data set [1]; 4.3 nM in data set [2]; 33 nM in data set [3]; over 300 nM in data set [4]; 280 nM in data set [5]; 1040 nM in data set [6].

The compound `COc1cc(OC)cc(-c2nc[nH]c2-c2ccc(OC)c(F)c2)c1` [Compound C128, 4-(3,5-dimethoxyphenyl)-5-(3-fluoro-4-methoxyphenyl)imidazole] displayed a melting point of 127.1 to 128.9 °C. Besides, 1.9 nM corresponded to half-maximal inhibition in data set [1] (IC50). The same compound gave an IC50 in data set [2] of 1 nM. The compound further gave an IC50 in data set [3] of 110 nM. For the same compound, it took 92 nM to reach half-maximal inhibition in data set [4] (IC50). The IC50 in data set [6] worked out at 590 nM. In data set [7] (SD male rats), the “AUMC0-inf—obs” value is on record as 7.569 μg/ml*h^2 and the “Lambda—z” value was found to be 0.833 h⁻¹. Further, in data set [7] (rat, iv, read-out: Vss—obs), the Vd worked out at 1.29 L/kg. Further, the Vd in data set [7] (rat, iv, read-out: Vz—obs) was 1.57 L/kg. In addition, in data set [7] (rat, iv, SD male rats), the AUC(0-t) stood at 7280 ng·h/mL, the C0 worked out at 20400 ng/mL, the concentration peaked (Cmax) at 14200 ng/mL and the Tmax is 4.98 min. The same compound gave a half-life in data set [7] (rat, iv, SD male rats) of 50 min. Besides, the AUC(0-inf) in data set [7] (rat, iv, SD male rats, read-out: AUC0-inf—obs) worked out at 7770 ng·h/mL. The clearance in data set [7] (rat, iv, SD male rats, read-out: Cl—obs (converted)) was 21.7 mL/min/kg. Besides, the MRT inf in data set [7] (rat, iv, SD male rats, read-out: MRT0-inf—obs) is 58.9 min.

With `COc1cc(OC)cc(-c2ncoc2-c2ccc(OC)c(N)c2)c1` [Compound C115, 4-(3,5-dimethoxyphenyl)-5-(3-amino-4-methoxyphenyl)oxazole], the IC50 in data set [1] was 5.7 nM; in data set [2], 101 nM; in data set [3], 335 nM; in data set [4], 52 nM; in data set [5], over 300 nM; in data set [6], 460 nM.
